Tested on: 616215-338-R-J1-PDC tumor spheroids, viability
Assay: Anticancer human tumor 616215-338-R-J1-PDC patient-derived colon adenocarcinoma cell line growth inhibition [GQUAD]
Settings: spheroids with HUVEC and MSC; for IC50: curve of first compound; for viability, T/C: stronger effect = lower value
Summary of the method: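 Multi-cell-type spheroids of tumor cells with HUVEC and mesenchymal stem cells, treated with drug combinations. Concentrations descend in half-log steps from near clinical Cmax, or from 10 microM where Cmax is unknown; viability read-out.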

[1] = second compound 0.0316 µM, first compound 0.0316 µM
[2] = second compound 0.0316 µM, first compound 0.1 µM
[3] = second compound 0.0316 µM, first compound 0.316 µM
[4] = second compound 0.0316 µM, first compound 1 µM
[5] = second compound 0.0316 µM, first compound 3.16 µM
[6] = second compound 0.0316 µM, first compound 10 µM
[7] = second compound 0.1 µM, first compound 0.0316 µM
[8] = second compound 0.1 µM, first compound 0.1 µM
[9] = second compound 0.1 µM, first compound 0.316 µM
[10] = second compound 0.1 µM, first compound 1 µM
[11] = second compound 0.1 µM, first compound 3.16 µM
[12] = second compound 0.1 µM, first compound 10 µM
[13] = second compound 0.316 µM, first compound 0.0316 µM
[14] = second compound 0.316 µM, first compound 0.1 µM
[15] = second compound 0.316 µM, first compound 0.316 µM
[16] = second compound 0.316 µM, first compound 1 µM
[17] = second compound 0.316 µM, first compound 3.16 µM
[18] = second compound 0.316 µM, first compound 10 µM
[19] = second compound 1 µM, first compound 0.0316 µM
[20] = second compound 1 µM, first compound 0.1 µM
[21] = second compound 1 µM, first compound 0.316 µM
[22] = second compound 1 µM, first compound 1 µM
[23] = second compound 1 µM, first compound 3.16 µM
[24] = second compound 1 µM, first compound 10 µM
[25] = second compound 3.16 µM, first compound 0.0316 µM
[26] = second compound 3.16 µM, first compound 0.1 µM
[27] = second compound 3.16 µM, first compound 0.316 µM
[28] = second compound 3.16 µM, first compound 1 µM
[29] = second compound 3.16 µM, first compound 3.16 µM
[30] = second compound 3.16 µM, first compound 10 µM
[31] = second compound 10 µM, first compound 0.0316 µM
[32] = second compound 10 µM, first compound 0.1 µM
[33] = second compound 10 µM, first compound 0.316 µM
[34] = second compound 10 µM, first compound 1 µM
[35] = second compound 10 µM, first compound 3.16 µM
[36] = second compound 10 µM, first compound 10 µM
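Further: spheroids exposed to agents for 7 days before readout.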
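Wherever viability, T/C is given: percent viability relative to DMSO vehicle control wells taken as 100%.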

## C=CCn1c(=O)c2cnc(Nc3ccc(N4CCN(C)CC4)cc3)nc2n1-c1cccc(C(C)(C)O)n1 + Cc1[nH]c2ccc(F)cc2c1-c1nc2c3cccnc3c3ncccc3c2[nH]1
Second compound 0.0316 µM
  IC50: 330 nM
Second compound 0.1 µM
  IC50: 352 nM
Second compound 0.316 µM
  IC50: 315 nM
Second compound 1 µM
  IC50: 342 nM
Second compound 3.16 µM
  IC50: 256 nM
Second compound 10 µM
  IC50: 227 nM
[1]
  viability, T/C: 95.5%
[2]
  viability, T/C: 90.1%
[3]
  viability, T/C: 48.3%
[4]
  viability, T/C: 25.4%
[5]
  viability, T/C: 12.4%
[6]
  viability, T/C: 12.2%
[7]
  viability, T/C: 97.4%
[8]
  viability, T/C: 99.9%
[9]
  viability, T/C: 50.6%
[10]
  viability, T/C: 28.4%
[11]
  viability, T/C: 17.9%
[12]
  viability, T/C: 11.9%
[13]
  viability, T/C: 106%
[14]
  viability, T/C: 99.6%
[15]
  viability, T/C: 47.5%
[16]
  viability, T/C: 25.4%
[17]
  viability, T/C: 12.9%
[18]
  viability, T/C: 12.4%
[19]
  viability, T/C: 103%
[20]
  viability, T/C: 104%
[21]
  viability, T/C: 52%
[22]
  viability, T/C: 18.6%
[23]
  viability, T/C: 14.2%
[24]
  viability, T/C: 9.69%
[25]
  viability, T/C: 98.4%
[26]
  viability, T/C: 87.7%
[27]
  viability, T/C: 40.9%
[28]
  viability, T/C: 15.8%
[29]
  viability, T/C: 11.1%
[30]
  viability, T/C: 6.8%
[31]
  viability, T/C: 95.3%
[32]
  viability, T/C: 88.3%
[33]
  viability, T/C: 34%
[34]
  viability, T/C: 17.9%
[35]
  viability, T/C: 11.2%
[36]
  viability, T/C: 6.71%

## CC(=O)O[C@H]1C(=O)[C@@]2(C)[C@H]([C@H](OC(=O)c3ccccc3)[C@]3(O)C[C@H](OC(=O)[C@H](O)[C@@H](NC(=O)c4ccccc4)c4ccccc4)C(C)=C1C3(C)C)[C@]1(OC(C)=O)CO[C@@H]1C[C@@H]2O + Cc1[nH]c2ccc(F)cc2c1-c1nc2c3cccnc3c3ncccc3c2[nH]1
Second compound 0.0316 µM
  IC50: < 31.6 nM
Second compound 0.1 µM
  IC50: < 31.6 nM
Second compound 0.316 µM
  IC50: < 31.6 nM
Second compound 1 µM
  IC50: < 31.6 nM
Second compound 3.16 µM
  IC50: < 31.6 nM
Second compound 10 µM
  IC50: < 31.6 nM
[1]
  viability, T/C: 25.5%
[2]
  viability, T/C: 21.1%
[3]
  viability, T/C: 16.1%
[4]
  viability, T/C: 14.5%
[5]
  viability, T/C: 13.6%
[6]
  viability, T/C: 12.9%
[7]
  viability, T/C: 31.7%
[8]
  viability, T/C: 15.6%
[9]
  viability, T/C: 15.4%
[10]
  viability, T/C: 12.1%
[11]
  viability, T/C: 11.7%
[12]
  viability, T/C: 13.8%
[13]
  viability, T/C: 22.9%
[14]
  viability, T/C: 18.9%
[15]
  viability, T/C: 15.5%
[16]
  viability, T/C: 11.6%
[17]
  viability, T/C: 13.1%
[18]
  viability, T/C: 11.6%
[19]
  viability, T/C: 19.6%
[20]
  viability, T/C: 12.4%
[21]
  viability, T/C: 12.8%
[22]
  viability, T/C: 11.8%
[23]
  viability, T/C: 13.2%
[24]
  viability, T/C: 14.7%
[25]
  viability, T/C: 14.9%
[26]
  viability, T/C: 14.7%
[27]
  viability, T/C: 15.1%
[28]
  viability, T/C: 10.2%
[29]
  viability, T/C: 10.8%
[30]
  viability, T/C: 11.1%
[31]
  viability, T/C: 16%
[32]
  viability, T/C: 12.5%
[33]
  viability, T/C: 14.9%
[34]
  viability, T/C: 11.5%
[35]
  viability, T/C: 10.1%
[36]
  viability, T/C: 10.8%
